# In ChEMBL document CHEMBL1944578, “Synthesis and anticonvulsant activity of novel 2,6-diketopiperazine derivatives. Part 2: Perhydropyrido[1,2-a]pyrazines” (Eur J Med Chem, 2012):
# Calls of active or inactive are those of the source. The calls are words filed in the database; no cut-off is given here.
# Tests used:
# Mus musculus [1] = assay: Anticonvulsant activity in ip dosed Carworth farms No.1 albino mouse assessed as protection against 6 Hz electric current-induced seizure measured after 0.25 hrs; format: functional
# Mus musculus [2] = assay: Anticonvulsant activity in Carworth farms No.1 albino mouse assessed as protection against subcutaneous metrazole-induced seizures at 100 mg/kg, ip measured after 0.5 hrs; format: functional, organism-based; design: dose 100 mg/kg
# Mus musculus [3] = assay: Anticonvulsant activity in Carworth farms No.1 albino mouse assessed as protection against subcutaneous metrazole-induced seizures at 30 mg/kg, ip measured after 4 hrs; format: functional, organism-based; design: dose 30 mg/kg
# Mus musculus [4] = assay: Neurotoxicity in Carworth farms No.1 albino mouse assessed as neurological impairment at 30 mg/kg, ip measured after 4 hrs; format: toxicity, organism-based; design: dose 30 mg/kg, route intraperitoneal; details: in vivo
# Mus musculus [5] = assay: Anticonvulsant activity in Carworth farms No.1 albino mouse assessed as protection against subcutaneous metrazole-induced seizures at 300 mg/kg, ip measured after 0.5 hrs; format: functional, organism-based; design: dose 300 mg/kg
# Mus musculus [6] = assay: Anticonvulsant activity in Carworth farms No.1 albino mouse assessed as protection against subcutaneous metrazole-induced seizures at 30 mg/kg, ip measured after 0.5 hrs; format: functional, organism-based; design: dose 30 mg/kg
# Mus musculus [7] = assay: Anticonvulsant activity in Carworth farms No.1 albino mouse assessed as protection against maximum electroshock at 300 mg/kg, ip measured after 0.5 hrs; format: functional, organism-based; design: dose 300 mg/kg
# Rattus norvegicus [8] = assay: Anticonvulsant activity in Sprague-Dawley rat assessed as protection against maximum electroshock at 30 mg/kg, po measured after 4 hrs; format: functional, organism-based; design: dose 30 mg/kg
# Rattus norvegicus [9] = assay: Toxicity in Sprague-Dawley rat assessed as body weight change in protected animals at 900 mg/kg, ip measured after 0.5 hrs; format: organism-based; design: dose 900 mg/kg, route intraperitoneal; details: in vivo
# Mus musculus [10] = assay: Neurotoxicity in Carworth farms No.1 albino mouse assessed as neurological impairment at 100 mg/kg, ip measured after 0.25 hrs; format: toxicity, organism-based; design: dose 100 mg/kg, route intraperitoneal; details: in vivo
# Mus musculus [11] = assay: Anticonvulsant activity in Carworth farms No.1 albino mouse assessed as protection against maximum electroshock at 30 mg/kg, ip measured after 4 hrs; format: functional, organism-based; design: dose 30 mg/kg
# Rattus norvegicus [12] = assay: Anticonvulsant activity in Sprague-Dawley rat assessed as protection against maximum electroshock at 30 mg/kg, po measured after 0.25 hrs; format: functional, organism-based; design: dose 30 mg/kg
# Mus musculus [13] = assay: Anticonvulsant activity in Carworth farms No.1 albino mouse assessed as protection against 6 Hz electric current-induced seizure at 100 mg/kg, ip measured after 1 hrs; format: functional, organism-based; design: dose 100 mg/kg
# Mus musculus [14] = assay: Neurotoxicity in Carworth farms No.1 albino mouse assessed as neurological impairment at 100 mg/kg, ip measured after 2 hr; format: toxicity, organism-based; design: dose 100 mg/kg, route intraperitoneal; details: in vivo
# Mus musculus [15] = assay: Anticonvulsant activity in Carworth farms No.1 albino mouse assessed as protection against maximum electroshock at 30 mg/kg, ip measured after 0.5 hrs; format: functional, organism-based; design: dose 30 mg/kg
# Rattus norvegicus [16] = assay: Neurotoxicity in Sprague-Dawley rat assessed as neurological impairment at 30 mg/kg, po measured after 1 hr; format: toxicity, organism-based; design: dose 30 mg/kg, route oral; details: in vivo
# Mus musculus [17] = assay: Neurotoxicity in Carworth farms No.1 albino mouse assessed as neurological impairment at 100 mg/kg, ip measured after 1 hr; format: toxicity, organism-based; design: dose 100 mg/kg, route intraperitoneal; details: in vivo
# Rattus norvegicus [18] = assay: Toxicity in Sprague-Dawley rat assessed as body weight change in unprotected animals at 900 mg/kg, ip measured after 0.5 hrs; format: organism-based; design: dose 900 mg/kg, route intraperitoneal; details: in vivo
# Mus musculus [19] = assay: Anticonvulsant activity in Carworth farms No.1 albino mouse assessed as protection against 6 Hz electric current-induced seizure at 100 mg/kg, ip measured after 4 hrs; format: functional, organism-based; design: dose 100 mg/kg
# Mus musculus [20] = assay: Anticonvulsant activity in Carworth farms No.1 albino mouse assessed as protection against maximum electroshock at 100 mg/kg, ip measured after 0.5 hrs; format: functional, organism-based; design: dose 100 mg/kg
# Rattus norvegicus [21] = assay: Neurotoxicity in Sprague-Dawley rat assessed as neurological impairment at 30 mg/kg, po measured after 0.25 hrs; format: toxicity, organism-based; design: dose 30 mg/kg, route oral; details: in vivo
# Rattus norvegicus [22] = assay: Neurotoxicity in Sprague-Dawley rat assessed as neurological impairment at 30 mg/kg, po measured after 4 hrs; format: toxicity, organism-based; design: dose 30 mg/kg, route oral; details: in vivo
# Rattus norvegicus [23] = assay: Anticonvulsant activity in Sprague-Dawley rat assessed as protection against maximum electroshock at 30 mg/kg, po measured after 1 hr; format: functional, organism-based; design: dose 30 mg/kg
# Mus musculus [24] = assay: Anticonvulsant activity in Carworth farms No.1 albino mouse assessed as protection against subcutaneous metrazole-induced seizures at 100 mg/kg, ip measured after 4 hrs; format: functional, organism-based; design: dose 100 mg/kg
# Mus musculus [25] = assay: Neurotoxicity in Carworth farms No.1 albino mouse assessed as neurological impairment at 100 mg/kg, ip measured after 4 hrs; format: toxicity, organism-based; design: dose 100 mg/kg, route intraperitoneal; details: in vivo
# Rattus norvegicus [26] = assay: Anticonvulsant activity in Sprague-Dawley rat assessed as protection against maximum electroshock at 30 mg/kg, po measured after 2 hrs; format: functional, organism-based; design: dose 30 mg/kg
# Rattus norvegicus [27] = assay: Toxicity in Sprague-Dawley rat assessed as mortality at 900 mg/kg, ip measured after 0.5 hrs; format: organism-based; design: dose 900 mg/kg, route intraperitoneal; details: in vivo
# Mus musculus [28] = assay: Neurotoxicity in Carworth farms No.1 albino mouse assessed as neurological impairment at 100 mg/kg, ip measured after 0.5 hrs; format: toxicity, organism-based; design: dose 100 mg/kg, route intraperitoneal; details: in vivo
# Mus musculus [29] = assay: Anticonvulsant activity in Carworth farms No.1 albino mouse assessed as protection against 6 Hz electric current-induced seizure at 100 mg/kg, ip measured after 0.5 hrs; format: functional, organism-based; design: dose 100 mg/kg
# Rattus norvegicus [30] = assay: Anticonvulsant activity in Sprague-Dawley rat assessed as protection against maximum electroshock at 30 mg/kg, po measured after 0.5 hrs; format: functional, organism-based; design: dose 30 mg/kg
# Mus musculus [31] = assay: Anticonvulsant activity in Carworth farms No.1 albino mouse assessed as protection against 6 Hz electric current-induced seizure at 100 mg/kg, ip measured after 0.25 hrs; format: functional, organism-based; design: dose 100 mg/kg
# Rattus norvegicus [32] = assay: Neurotoxicity in Sprague-Dawley rat assessed as sedation at 900 mg/kg, ip measured after 0.5 hrs; format: toxicity, organism-based; design: dose 900 mg/kg, route intraperitoneal; details: in vivo
# Mus musculus [33] = assay: Anticonvulsant activity in Carworth farms No.1 albino mouse assessed as protection against subcutaneous metrazole-induced seizures at 300 mg/kg, ip measured after 4 hrs; format: functional, organism-based; design: dose 300 mg/kg
# Rattus norvegicus [34] = assay: Neurotoxicity in Sprague-Dawley rat assessed as neurological impairment at 30 mg/kg, po measured after 0.5 hrs; format: toxicity, organism-based; design: dose 30 mg/kg, route oral; details: in vivo
# Mus musculus [35] = assay: Neurotoxicity in Carworth farms No.1 albino mouse assessed as neurological impairment at 300 mg/kg, ip measured after 0.5 hrs; format: toxicity, organism-based; design: dose 300 mg/kg, route intraperitoneal; details: in vivo
# Mus musculus [36] = assay: Neurotoxicity in Carworth farms No.1 albino mouse assessed as neurological impairment at 300 mg/kg, ip measured after 4 hrs; format: toxicity, organism-based; design: dose 300 mg/kg, route intraperitoneal; details: in vivo
# Mus musculus [37] = assay: Neurotoxicity in Carworth farms No.1 albino mouse assessed as neurological impairment at 30 mg/kg, ip measured after 0.5 hrs; format: toxicity, organism-based; design: dose 30 mg/kg, route intraperitoneal; details: in vivo
# Mus musculus [38] = assay: Anticonvulsant activity in Carworth farms No.1 albino mouse assessed as protection against maximum electroshock at 300 mg/kg, ip measured after 4 hrs; format: functional, organism-based; design: dose 300 mg/kg
# Rattus norvegicus [39] = assay: Anticonvulsant activity in Sprague-Dawley rat assessed as protection against pilocarpine-induced status at 900 mg/kg, ip measured after 0.5 hrs; format: functional, organism-based; design: dose 900 mg/kg
# Mus musculus [40] = assay: Anticonvulsant activity in Carworth farms No.1 albino mouse assessed as protection against maximum electroshock at 100 mg/kg, ip measured after 4 hrs; format: functional, organism-based; design: dose 100 mg/kg
# Rattus norvegicus [41] = assay: Neurotoxicity in Sprague-Dawley rat assessed as neurological impairment at 30 mg/kg, po measured after 2 hrs; format: toxicity, organism-based; design: dose 30 mg/kg, route oral; details: in vivo
# Mus musculus [42] = assay: Anticonvulsant activity in Carworth farms No.1 albino mouse assessed as protection against 6 Hz electric current-induced seizure at 100 mg/kg, ip measured after 2 hrs; format: functional, organism-based; design: dose 100 mg/kg
# Mus musculus [43] = species on record: Mus musculus; assay: Anticonvulsant activity in electric shock-induced Carworth farms No.1 albino mouse assessed as time of peak effect; format: functional
smiles,measurement,setting,value
O=C1NC(=O)[C@@H](c2ccccc2)N2CCCC[C@H]12,ED50,Mus musculus [1],38.2 mg/kg
same,Activity,Mus musculus [2],inactive
same,Activity,Mus musculus [3],inactive
same,Activity,Mus musculus [4],Non-toxic
same,Activity,Mus musculus [5],inactive
same,Activity,Mus musculus [6],inactive
same,Activity,Mus musculus [7],inactive
same,Activity,Rattus norvegicus [8],Active
same,Activity,Rattus norvegicus [9],-17.5 g
same,Activity,Mus musculus [10],Non-toxic
same,Activity,Mus musculus [11],inactive
same,Activity,Rattus norvegicus [12],inactive
same,Activity,Mus musculus [13],Active
same,Activity,Mus musculus [14],Non-toxic
same,Activity,Mus musculus [15],inactive
same,Activity,Rattus norvegicus [16],Non-toxic
same,Activity,Mus musculus [17],Non-toxic
same,Activity,Rattus norvegicus [18],-20 g
same,Activity,Mus musculus [19],inactive
same,Activity,Mus musculus [20],inactive
same,Activity,Rattus norvegicus [21],Non-toxic
same,Activity,Rattus norvegicus [22],Non-toxic
same,Activity,Rattus norvegicus [23],inactive
same,Activity,Mus musculus [24],inactive
same,Activity,Mus musculus [25],Non-toxic
same,Activity,Rattus norvegicus [26],inactive
same,Activity,Rattus norvegicus [27],Toxic
same,Activity,Mus musculus [28],Non-toxic
same,Activity,Mus musculus [29],Active
same,Activity,Rattus norvegicus [30],inactive
same,Activity,Mus musculus [31],Active
same,Activity,Rattus norvegicus [32],Toxic
same,Activity,Mus musculus [33],inactive
same,Activity,Rattus norvegicus [34],Non-toxic
same,Activity,Mus musculus [35],Non-toxic
same,Activity,Mus musculus [36],Non-toxic
same,Activity,Mus musculus [37],Non-toxic
same,Activity,Mus musculus [38],inactive
same,Activity,Rattus norvegicus [39],Active
same,Activity,Mus musculus [40],inactive
same,Activity,Rattus norvegicus [41],Non-toxic
same,Activity,Mus musculus [42],Active
same,Time,Mus musculus [43],0.25 h
